In the assay the target is T1, ERAP1 (Homo sapiens, UniProt Q9NZ08).
T1 construct: Purified ERAP1(37-941)-10His (ERAP1)
Briefly: ERAP1 mediated hydrolysis of an amide substrate measured in a biochemical system (10-mer inhibition assay). As to conditions: purified ERAP1(37-941)-10His; 10-mer substrate; 23° C. for 1 h; excitation 279 nm, emission 355 nm; read-out: IC50 vs Decapeptide WRVYEKC(Dnp)ALK-acid (where Dnp is Dinitrophenyl maleimide) (10-mer). Summed up:
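Purified ERAP1(37-941)-10His in 25 mM Bis-tris propane, 0.05% HPMC, pH 7.75, with compound, then 100 μM 10-mer WRVYEKC(Dnp)ALK or 240 μM L-AMC added (stock concentrations before 1:1 mixing), 1 h at 23 °C. Fluorescence read at ex 279/em 355 nm (10-mer) or ex 365/em 442 nm (L-AMC); IC50 from 4-parameter fit.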

A value given as a limit tells only on which side of the number the result lay.

T1 sequence (Q9NZ08 37-941): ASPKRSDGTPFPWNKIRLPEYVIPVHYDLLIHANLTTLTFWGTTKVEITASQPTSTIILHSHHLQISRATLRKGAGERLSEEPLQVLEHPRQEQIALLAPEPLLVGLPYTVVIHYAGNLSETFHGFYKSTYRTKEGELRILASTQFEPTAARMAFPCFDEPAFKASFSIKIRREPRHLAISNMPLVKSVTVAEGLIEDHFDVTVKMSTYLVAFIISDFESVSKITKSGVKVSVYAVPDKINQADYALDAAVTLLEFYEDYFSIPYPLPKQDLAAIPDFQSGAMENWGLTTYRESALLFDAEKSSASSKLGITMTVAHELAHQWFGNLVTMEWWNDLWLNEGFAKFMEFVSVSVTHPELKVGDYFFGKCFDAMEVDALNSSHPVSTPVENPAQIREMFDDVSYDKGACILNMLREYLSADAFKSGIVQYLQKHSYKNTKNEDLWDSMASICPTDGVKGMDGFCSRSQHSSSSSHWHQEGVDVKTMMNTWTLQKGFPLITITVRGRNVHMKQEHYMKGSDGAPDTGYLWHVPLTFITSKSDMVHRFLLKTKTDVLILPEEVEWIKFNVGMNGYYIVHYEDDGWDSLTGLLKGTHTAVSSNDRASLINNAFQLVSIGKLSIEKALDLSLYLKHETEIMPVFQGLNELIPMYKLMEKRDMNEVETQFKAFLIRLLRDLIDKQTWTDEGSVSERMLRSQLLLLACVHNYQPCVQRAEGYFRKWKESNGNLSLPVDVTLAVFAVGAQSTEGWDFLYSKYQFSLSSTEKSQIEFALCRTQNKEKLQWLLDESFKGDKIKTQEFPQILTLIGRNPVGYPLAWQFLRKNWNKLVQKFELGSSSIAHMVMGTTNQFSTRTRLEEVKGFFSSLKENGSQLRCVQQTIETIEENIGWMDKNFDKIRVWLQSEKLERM

The IC50 is the midpoint of a concentration-inhibition curve. `N#Cc1cc(NS(=O)(=O)c2cc(C(=O)O)ccc2C2CC2)c(O[C@H]2CCOC2)cc1Cl` [Example 49, (S)-3-(N-(4-chloro-5-cyano-2-((tetrahydrofuran-3-yl)oxy)phenyl)sulfamoyl)-4-cyclopropylbenzoic acid]: the IC50 was in the range of 1 to 5 nM. The value for `O=C(O)c1ccc(C2CC2)c(S(=O)(=O)Nc2cc(-c3ccns3)c(Cl)cc2OC2CC(F)(F)C2)c1` [Example 50, 3-(N-(4-chloro-2-(3,3-difluorocyclobutoxy)-5-(isothiazol-5-yl)phenyl)sulfamoyl)-4-cyclopropylbenzoic acid] was below 1 nM; that for `O=C(O)c1ccc(C2CC2)c(S(=O)(=O)Nc2cc(-c3ccns3)c(Cl)cc2OC2CCC2)c1` [Example 51, 3-(N-(4-chloro-2-cyclobutoxy-5-(isothiazol-5-yl)phenyl)sulfamoyl)-4-cyclopropylbenzoic acid] was below 1 nM; that for `N#Cc1cc(NS(=O)(=O)c2cc(C(=O)O)ccc2C2CC2)c(OC2CC3(COC3)C2)cc1Cl` [Example 52, 3-(N-(2-((2-oxaspiro[3.3]heptan-6-yl)oxy)-4-chloro-5-cyanophenyl)sulfamoyl)-4-cyclopropylbenzoic acid] was above 5 nM. The value for `N#Cc1cc(NS(=O)(=O)c2cc(C(=O)O)ccc2C2CC2)c(O[C@H]2C[C@@H](C#N)C2)cc1Cl` [Example 53, 3-(N-(4-chloro-5-cyano-2-(cis-3-cyanocyclobutoxy)phenyl)sulfamoyl)-4-cyclopropylbenzoic acid] was 1 to 5 nM; that for `C#CC1(Oc2cc(Cl)c(C#N)cc2NS(=O)(=O)c2cc(C(=O)O)ccc2C2CC2)CCC1` [Example 54, 3-(N-(4-chloro-5-cyano-2-(1-ethynylcyclobutoxy)phenyl)sulfamoyl)-4-cyclopropylbenzoic acid] was 1 to 5 nM. Consider `N#Cc1cc(NS(=O)(=O)c2cc(C(=O)O)ccc2C2CC2)c(O[C@H]2C[C@H](C#N)C2)cc1Cl` [Example 55, 3-(N-(4-chloro-5-cyano-2-(trans-3-cyanocyclobutoxy)phenyl)sulfamoyl)-4-cyclopropylbenzoic acid], for which the IC50 fell in the range of 1 to 5 nM. The result for `N#Cc1cc(NS(=O)(=O)c2cc(C(=O)O)ccc2C2CC2)c(OC2CCC23CC3)cc1Cl` (centres unmarked) [Example 56, 3-(N-(4-chloro-5-cyano-2-(spiro[2.3]hexan-4-yloxy)phenyl)sulfamoyl)-4-cyclopropylbenzoic acid] reads below 1 nM. As for `CC1(C)CCC[C@@H]1Oc1cc(Cl)c(C#N)cc1NS(=O)(=O)c1cc(C(=O)O)ccc1C1CC1` [Example 57, (S)−3-(N-(4-chloro-5-cyano-2-((2,2-dimethylcyclopentyl)oxy)phenyl)sulfamoyl)-4-cyclopropylbenzoic acid], the IC50 is below 1 nM. The value for `N#Cc1cc(NS(=O)(=O)c2cc(C(=O)O)ccc2C2CC2)c(OCC2(F)CCC2)cc1Cl` [Example 58, 3-(N-(4-chloro-5-cyano-2-((1-fluorocyclobutyl)methoxy)phenyl)sulfamoyl)-4-cyclopropylbenzoic acid] was below 1 nM; that for `Cc1oncc1-c1cc(NS(=O)(=O)c2cc(C(=O)O)ccc2C2CC2)c(OC2CCC2)cc1Cl` [Example 60, 3-(N-(4-chloro-2-cyclobutoxy-5-(5-methylisoxazol-4-yl)phenyl)sulfamoyl)-4-cyclopropylbenzoic acid] was below 1 nM. `Cc1oncc1-c1cc(NS(=O)(=O)c2cc(C(=O)O)ccc2C2CC2)c(OC2CC(F)(F)C2)cc1Cl` [Example 61, 3-(N-(4-chloro-2-(3,3-difluorocyclobutoxy)-5-(5-methylisoxazol-4-yl)phenyl)sulfamoyl)-4-cyclopropylbenzoic acid]: the IC50 is below 1 nM. The result for `CC1(Oc2cc(Cl)c(C#N)cc2NS(=O)(=O)c2cc(C(=O)O)ccc2C2CC2)CCC1` [Example 62, 3-(N-(4-chloro-5-cyano-2-(1-methylcyclobutoxy)phenyl)sulfamoyl)-4-cyclopropylbenzoic acid] reads below 1 nM; that for `CC1(C)CCC[C@H]1Oc1cc(Cl)c(C#N)cc1NS(=O)(=O)c1cc(C(=O)O)ccc1C1CC1` [Example 63, (R)-3-(N-(4-chloro-5-cyano-2-((2,2-dimethylcyclopentyl)oxy)phenyl)sulfamoyl)-4-cyclopropylbenzoic acid], below 1 nM; that for `N#Cc1cc(NS(=O)(=O)c2cc(C(=O)O)ccc2C2CC2)c(OC2CCC3(CC3)C2)cc1Cl` (centres unmarked) [Example 64, 3-(N-(4-chloro-5-cyano-2-(spiro[2.4]heptan-5-yloxy)phenyl)sulfamoyl)-4-cyclopropylbenzoic acid], below 1 nM.

Consider `N#Cc1cc(NS(=O)(=O)c2cc(C(=O)O)ccc2C2CC2)c(OCC23COC(C2)C3)cc1Cl` [Example 65, 3-(N-(2-((2-oxabicyclo[2.1.1]hexan-4-yl)methoxy)-4-chloro-5-cyanophenyl)sulfamoyl)-4-cyclopropylbenzoic acid], for which the IC50 was 1 to 5 nM.

On to `N#Cc1cc(NS(=O)(=O)c2cc(C(=O)O)ccc2C2CC2)c(OC2COC2)cc1Cl` [Example 66, 3-(N-(4-chloro-5-cyano-2-(oxetan-3-yloxy)phenyl)sulfamoyl)-4-cyclopropylbenzoic acid], for which the IC50 was above 5 nM. Take `N#Cc1cc(NS(=O)(=O)c2c(C3CC3)ccc(C(=O)O)c2F)c(OC2CCCC2)cc1Cl` [Example 67, 3-(N-(4-chloro-5-cyano-2-(cyclopentyloxy)phenyl)sulfamoyl)-4-cyclopropyl-2-fluorobenzoic acid]: the IC50 is above 5 nM. The value for `CO[C@H]1C[C@@H](Oc2cc(Cl)c(C#N)cc2NS(=O)(=O)c2cc(C(=O)O)ccc2C2CC2)C1` [Example 68, 3-(N-(4-chloro-5-cyano-2-(cis-3-methoxycyclobutoxy)phenyl)sulfamoyl)-4-cyclopropylbenzoic acid] was 1 to 5 nM; that for `N#Cc1cc(NS(=O)(=O)c2cc(C(=O)O)ccc2C2CC2)c(OC2CCCC23CC3)cc1Cl` (centres unmarked) [Example 69, 3-(N-(4-chloro-5-cyano-2-(spiro[2.4]heptan-4-yloxy)phenyl)sulfamoyl)-4-cyclopropylbenzoic acid] was below 1 nM; that for `C[C@H](Oc1cc(Cl)c(C#N)cc1NS(=O)(=O)c1cc(C(=O)O)ccc1C1CC1)C1CCC1` [Example 70, (S)-3-(N-(4-chloro-5-cyano-2-(1-cyclobutylethoxy)phenyl)sulfamoyl)-4-cyclopropylbenzoic acid] was below 1 nM. The result for `N#Cc1cc(NS(=O)(=O)c2cc(C(=O)O)ccc2C2CC2)c(O[C@H]2C[C@@H](F)C2)cc1Cl` [Example 71, 3-(N-(4-chloro-5-cyano-2-(cis-3-fluorocyclobutoxy)phenyl)sulfamoyl)-4-cyclopropylbenzoic acid] reads below 1 nM; that for `N#Cc1cc(NS(=O)(=O)c2cc(C(=O)O)ccc2C2CC2)c(O[C@@H]2CCC[C@@H]2F)cc1Cl` [Example 73, 3-(N-(4-chloro-5-cyano-2-(((1R,2S)-2-fluorocyclopentyl)oxy)phenyl)sulfamoyl)-4-cyclopropylbenzoic acid], below 1 nM; that for `CC1(C)CC(COc2cc(Cl)c(C#N)cc2NS(=O)(=O)c2cc(C(=O)O)ccc2C2CC2)C1` [Example 75, 3-(N-(4-chloro-5-cyano-2-((3,3-dimethylcyclobutyl)methoxy)phenyl)sulfamoyl)-4-cyclopropylbenzoic acid], 1 to 5 nM. The result for `N#Cc1cc(NS(=O)(=O)c2cc(C(=O)O)ccc2C2CC2)c(OCC23CC(C2)C3)cc1Cl` [Example 76, 3-(N-(2-(bicyclo[1.1.1]pentan-1-ylmethoxy)− 4-chloro-5-cyanophenyl)sulfamoyl)-4-cyclopropylbenzoic acid] reads below 1 nM.

For the compound `N#Cc1cc(NS(=O)(=O)c2cc(C(=O)O)ccc2C2CC2)c(OC2CCC23CCC3)cc1Cl` (centres unmarked) [Example 77, 3-(N-(4-chloro-5-cyano-2-(spiro[3.3]heptan-1-yloxy)phenyl)sulfamoyl)-4-cyclopropylbenzoic acid], the IC50 is below 1 nM. On to `C[C@@H](Oc1cc(Cl)c(C#N)cc1NS(=O)(=O)c1cc(C(=O)O)ccc1C1CC1)C1CCC1` [Example 78, (R)-3-(N-(4-chloro-5-cyano-2-(1-cyclobutylethoxy)phenyl)sulfamoyl)-4-cyclopropylbenzoic acid], for which the IC50 was below 1 nM. The result for `N#Cc1cc(NS(=O)(=O)c2cc(C(=O)O)ccc2C2CC2)c(OCC23C4C5C6C4C2C6C53)cc1Cl` (centres unmarked) [Example 79, 3-(N-(4-chloro-2-(cuban-1-ylmethoxy)-5-cyanophenyl)sulfamoyl)-4-cyclopropylbenzoic acid] reads below 1 nM; that for `CC1(C)CCC1Oc1cc(Cl)c(C#N)cc1NS(=O)(=O)c1cc(C(=O)O)ccc1C1CC1` (centres unmarked) [Example 80, 3-(N-(4-chloro-5-cyano-2-(2,2-dimethylcyclobutoxy)phenyl)sulfamoyl)-4-cyclopropylbenzoic acid], below 1 nM. For `CC1(Oc2cc(Cl)c(C#N)cc2NS(=O)(=O)c2cc(C(=O)O)ccc2C2CC2)CCCC1` [Example 81, 3-(N-(4-chloro-5-cyano-2-((1-methylcyclopentyl)oxy)phenyl)sulfamoyl)-4-cyclopropylbenzoic acid], the IC50 is below 1 nM. The value for `N#Cc1cc(NS(=O)(=O)c2cc(C(=O)O)ccc2C2CC2)c(OCC2(C#N)CCC2)cc1Cl` [Example 82, 3-(N-(4-chloro-5-cyano-2-((1-cyanocyclobutyl)methoxy)phenyl)sulfamoyl)-4-cyclopropylbenzoic acid] was below 1 nM; that for `N#Cc1cc(NS(=O)(=O)c2cc(C(=O)O)ccc2C2CC2)c(OC2CCCC2(F)F)cc1Cl` (centres unmarked) [Example 83, 3-(N-(4-chloro-5-cyano-2-((2,2-difluorocyclopentyl)oxy)phenyl)sulfamoyl)-4-cyclopropylbenzoic acid] was below 1 nM.

Values taken from patent US12692223B2, “Phenyl-sulfamoyl-benzoic acid derivatives as ERAP1-modulators” (GREY WOLF THERAPEUTICS LIMITED, priority 2021, dated 2026).
